This is an account of results in ChEMBL document CHEMBL2203185, “Development of sub-nanomolar dipeptidic ligands of neuropeptide FF receptors” (Bioorg Med Chem Lett, 2012).

Structures are written as SMILES.

The target of assay [1] is T1, Neuropeptide FF receptor 1 (Homo sapiens, UniProt Q9GZQ6). The experiment in a line: Displacement of [3H]FFRF-NH2 from human flag-tagged NPFF1 receptor expressed in CHO cells by scintillation counting. Format: cell-based.
Assay [2] has as its target T2, Neuropeptide FF receptor 2 (Homo sapiens, UniProt Q9Y5X5). In words: Displacement of [3H]FFRF-NH2 from human flag-tagged NPFF2 receptor expressed in CHO cells by scintillation counting. It is filed as cell-based. In general terms: Displacement assays read how much labelled ligand stays bound in the presence of the test substance.
The target of assay [3] is T1, Neuropeptide FF receptor 1. The experiment in a line: Displacement of [3H]FFRF-NH2 from human flag-tagged NPFF1 receptor expressed in CHO cells at 500 nM by scintillation counting. Format: cell-based.
In assay [4] the target is T2, Neuropeptide FF receptor 2. The experiment in a line: Displacement of [3H]FFRF-NH2 from human flag-tagged NPFF2 receptor expressed in CHO cells at 5 uM by scintillation counting. It is filed as cell-based.
In assay [5] the target is T1, Neuropeptide FF receptor 1. In words: Displacement of [3H]FFRF-NH2 from human flag-tagged NPFF1 receptor expressed in CHO cells at 5 uM by scintillation counting. Format: cell-based.
Assay [6] deals with T2, Neuropeptide FF receptor 2. In words: Displacement of [3H]FFRF-NH2 from human flag-tagged NPFF2 receptor expressed in CHO cells at 500 nM by scintillation counting. Format: cell-based.
Assay [7] concerns the target T2, Neuropeptide FF receptor 2. The experiment in a line: Ratio of RF2 Ki to compound Ki for human flag-tagged NPFF2 receptor.

T1 sequence (Q9GZQ6 whole entry): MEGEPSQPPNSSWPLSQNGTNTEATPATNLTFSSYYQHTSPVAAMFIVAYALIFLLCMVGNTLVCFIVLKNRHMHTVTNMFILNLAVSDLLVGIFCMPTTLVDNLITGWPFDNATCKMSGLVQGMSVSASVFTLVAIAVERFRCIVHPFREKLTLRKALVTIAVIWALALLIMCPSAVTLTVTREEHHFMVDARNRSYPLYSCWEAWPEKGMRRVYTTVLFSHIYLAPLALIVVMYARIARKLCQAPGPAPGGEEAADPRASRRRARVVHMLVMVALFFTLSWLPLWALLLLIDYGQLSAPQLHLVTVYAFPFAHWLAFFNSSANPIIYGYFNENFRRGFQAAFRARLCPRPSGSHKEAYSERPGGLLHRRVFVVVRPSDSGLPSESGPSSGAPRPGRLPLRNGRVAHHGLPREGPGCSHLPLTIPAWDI
T2 sequence (Q9Y5X5 whole entry): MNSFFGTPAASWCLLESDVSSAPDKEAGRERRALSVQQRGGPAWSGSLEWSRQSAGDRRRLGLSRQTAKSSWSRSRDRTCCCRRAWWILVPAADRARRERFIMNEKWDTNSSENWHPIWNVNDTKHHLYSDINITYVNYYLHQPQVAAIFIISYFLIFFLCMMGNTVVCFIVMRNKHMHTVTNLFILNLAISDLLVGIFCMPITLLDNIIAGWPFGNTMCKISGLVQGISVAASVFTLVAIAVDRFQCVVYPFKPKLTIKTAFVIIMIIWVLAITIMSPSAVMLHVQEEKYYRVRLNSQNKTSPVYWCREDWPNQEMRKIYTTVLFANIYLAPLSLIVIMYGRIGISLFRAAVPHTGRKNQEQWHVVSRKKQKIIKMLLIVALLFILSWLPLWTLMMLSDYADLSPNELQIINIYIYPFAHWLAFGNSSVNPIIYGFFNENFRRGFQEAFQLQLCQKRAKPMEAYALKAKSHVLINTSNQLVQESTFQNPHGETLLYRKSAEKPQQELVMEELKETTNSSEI

As a reminder, the Ki is the equilibrium dissociation constant of an inhibitor or competing ligand from its target. What is called inhibition is the share of the control response that was lost under treatment. A high value points to a strong effect. Take `N=C(N)NCCC[C@H](NC(=O)c1ccc2cc[nH]c2c1)C(=O)N[C@@H](Cc1ccccc1)C(N)=O`: the results for the Ki in assay [1] and in assay [2] were 378 nM and 136 nM, respectively. The inhibition in assay [3] was 41%; in assay [4], 70%; in assay [5] it was 89%; in assay [6] it was 38%.
For `N=C(N)NCCC[C@@H](NC(=O)/C=C/c1ccccc1)C(=O)N[C@@H](Cc1ccccc1)C(N)=O`, the Ki in assay [1] was found to be 0.8 nM; in assay [2], 117 nM. The inhibition amounted to 84% in assay [3], 58% in assay [4], 95% in assay [5] and 18% in assay [6].
In the case of `COc1cccc(C(=O)N[C@@H](CCCNC(=N)N)C(=O)N[C@@H](Cc2ccccc2)C(N)=O)c1`, the Ki in assay [1] was 106 nM; in assay [2], 206 nM. For the same compound, the inhibition in assay [3] stood at 11%; in assay [4] it was 60%; in assay [5], 85%; in assay [6], 5%.
`N=C(N)NCCC[C@H](NC(=O)C12CC3CC(CC(C3)C1)C2)C(=O)N[C@H](Cc1ccccc1)C(N)=O`: the Ki was 114 nM in assay [1] and 424 nM in assay [2]. The inhibition in assay [3] was determined as 18%; in assay [4], 49%; in assay [5], 79%; in assay [6], 4%.
`N=C(N)NCCC[C@H](NC(=O)c1ccccc1)C(=O)N[C@@H](Cc1ccccc1)C(N)=O`: the Ki stood at 23 nM in assay [1] and 92 nM in assay [2]. For the same compound, the inhibition in assay [3] worked out at 66%; in assay [4], 92%; in assay [5], 99%; in assay [6] it was 32%.
For the compound `N=C(N)NCCC[C@@H](NC(=O)c1ccccc1)C(=O)N[C@@H](Cc1ccccc1)C(N)=O`, the Ki in assay [1] stood at 11 nM; in assay [2] it was 22 nM. In addition, the inhibition in assay [3] came out at 80%; in assay [4], 92%; in assay [5] it was 90%; in assay [6] it was 55%. Besides, the Ratio Ki in assay [7] was found to be 5.
For the compound `N=C(N)NCCC[C@@H](NC(=O)C(c1ccccc1)c1ccccc1)C(=O)N[C@H](Cc1ccccc1)C(N)=O`, the figures for the Ki in assay [1] and in assay [2] were 15 nM and 227 nM, respectively. Besides, the inhibition is 74% in assay [3], 46% in assay [4], 86% in assay [5] and 18% in assay [6].
In the case of `N=C(N)NCCC[C@@H](NC(=O)c1ccccc1-c1ccccc1)C(=O)N[C@@H](Cc1ccccc1)C(N)=O`, the Ki in assay [1] amounted to 2 nM; in assay [2], 4 nM. Moreover, the inhibition in assay [3] stood at 89%; in assay [4], 90%; in assay [5], 97%; in assay [6], 65%.
Take `N=C(N)NCCC[C@@H](NC(=O)/C=C/c1ccccc1)C(=O)N[C@H](Cc1ccccc1)C(N)=O`: the Ki was found to be 84 nM in assay [1] and 1620 nM in assay [2]. Moreover, the inhibition in assay [3] came to 55%; in assay [4] it was 14%; in assay [5] it was 82%; in assay [6] it was 0%.
